Laboratory results taken from patent publication US20110015067A1, “Herbicidal Compositions Comprising Pyroxasulfone” (BASF SE, priority 2008, published 2011).
Like-named read-outs stand apart in the source and are kept apart here.

How the values were obtained:
Assay in all cases: pre-emergence greenhouse test
Assay type in all cases: in vivo
[1] = test system: ERBVI; conditions: for observed activity in % destruction: pre-emergence, 25 g ai/ha
How it was run: (§1)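 Compounds suspended or emulsified in water were sprayed through fine nozzles directly after sowing, then pots were gently irrigated and kept under transparent hoods until rooting. Herbicidal effect of solo compounds and mixtures was rated 8 and/or 20 days after treatment on a 0–100% damage scale versus untreated controls.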

[2] = test system: AMARE (Amaranthus retroflexus); conditions: for inhibition at 12.5 g/ha: Amaranthus retroflexus, use rate 12.5 g ai/ha, read-out: observed % activity; for inhibition at 12.5 g/ha / observed activity in % destruction: pre-emergence
How it was run: as §1

[3] = test system: BRAPL (Brachiaria plantaginea); conditions: for observed activity in % destruction: pre-emergence
How it was run: (§2)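 Herbicide A and safener were formulated as 10% by weight suspension concentrates, herbicide B as commercial product, all diluted in water and sprayed onto soil just after sowing. Percent damage compared with untreated controls was recorded 8 and/or 20 DAT.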

[4] = test system: SETVI (Setaria viridis); conditions: for observed activity in % destruction: pre-emergence
How it was run: as §2

[5] = test system: PANMI (Panicum milliaceum)
How it was run: as §2

[6] = test system: SETFA (Setaria faberii); conditions: SETFA pre-emergence 25 g ai/ha
How it was run: as §2

[7] = test system: SOLNI (Solanum nigrum); conditions: for inhibition at 50 g/ha: Solanum nigrum, use rate 50 g ai/ha, read-out: observed % activity; for inhibition at 50 g/ha / observed activity in % destruction: pre-emergence
How it was run: as §1

[8] = test system: COMBE (Commelina benghalensis); conditions: for inhibition at 12.5 g/ha: Commelina benghalensis, use rate 12.5 g ai/ha, read-out: observed % activity; for inhibition at 12.5 g/ha / observed activity in % destruction: pre-emergence
How it was run: as §1

[9] = test system: DIGSA (Digitaria sanguinalis); conditions: DIGSA pre-emergence 25 g ai/ha
How it was run: as §2

[10] = test system: PHBPU (Ipomoea purpurea); conditions: for observed activity in % destruction: pre-emergence, 50 g ai/ha
How it was run: as §2

[11] = test system: ALOMY (Alopecurus myosuroides); conditions: for observed activity in % destruction: pre-emergence
How it was run: as §2

[12] = test system: ABUTH (Abutilon theophrasti); conditions: for observed activity in % destruction: pre-emergence, 50 g ai/ha
How it was run: as §2

[13] = BRAPL pre-emergence 6.25 g ai/ha
[14] = BRAPL pre-emergence 12.5 g ai/ha
[15] = SETVI pre-emergence 6.25 g ai/ha
[16] = SETVI pre-emergence 12.5 g ai/ha
[17] = COMBE pre-emergence 6.25 g ai/ha
[18] = COMBE pre-emergence 12.5 g ai/ha
[19] = ABUTH pre-emergence 6.25 g ai/ha
[20] = ABUTH pre-emergence 12.5 g ai/ha

Cn1nc(C(F)(F)F)c(CS(=O)(=O)C2=NOC(C)(C)C2)c1OC(F)F [pyroxasulfone, 3-[5-(difluoromethoxy)-1-methyl-3-(trifluoromethyl)pyrazol-4-ylmethylsulfonyl]-4,5-dihydro-5,5-dimethyl-1,2-oxazole]
observed % destruction 20 DAT ([1]; ERBVI pre-emergence 6.25 g ai/ha): 40% | observed % destruction 20 DAT ([1]; ERBVI pre-emergence 12.5 g ai/ha): 55% | observed % destruction 8 DAT ([1]; ERBVI pre-emergence 25 g ai/ha): 60% | observed % destruction 20 DAT ([1]; ERBVI pre-emergence 25 g ai/ha): 75% | observed activity in % destruction ([1]; 8 DAT): 60% | observed activity in % destruction ([1]; 20 DAT): 75% | observed % destruction 20 DAT ([2]; AMARE pre-emergence 12.5 g ai/ha): 95% | observed % destruction 8 DAT ([2]; AMARE pre-emergence 25 g ai/ha): 80% | observed % destruction 20 DAT ([2]; AMARE pre-emergence 25 g ai/ha): 100% | inhibition at 12.5 g/ha ([2]; 192 h, 8 DAT): 80% | inhibition at 12.5 g/ha ([2]; 480 h, 20 DAT): 95% | observed activity in % destruction ([2]; 12.5 g ai/ha, 8 DAT): 80% | observed activity in % destruction ([2]; 12.5 g ai/ha, 20 DAT): 95% | observed activity in % destruction ([2]; 25 g ai/ha, 8 DAT): 80% | observed activity in % destruction ([2]; 25 g ai/ha, 20 DAT): 100% | observed activity in % destruction ([2]; 50 g ai/ha, 8 DAT): 90% | observed activity in % destruction ([2]; 50 g ai/ha, 20 DAT): 100% | observed % destruction 8 DAT [3, 13]: 30% | observed % destruction 20 DAT [3, 13]: 70% | observed % destruction 8 DAT [3, 14]: 35% | observed % destruction 20 DAT [3, 14]: 80% | observed % destruction 8 DAT ([3]; BRAPL pre-emergence 25 g ai/ha): 60% | observed % destruction 20 DAT ([3]; BRAPL pre-emergence 25 g ai/ha): 95% | observed % destruction 20 DAT ([3]; BRAPL pre-emergence 50 g ai/ha): 98% | observed activity in % destruction ([3]; 12.5 g ai/ha, 8 DAT): 35% | observed activity in % destruction ([3]; 12.5 g ai/ha, 20 DAT): 80% | observed activity in % destruction ([3]; 25 g ai/ha, 8 DAT): 60% | observed activity in % destruction ([3]; 25 g ai/ha, 20 DAT): 95% | observed activity in % destruction ([3]; 50 g ai/ha, 8 DAT): 70% | observed activity in % destruction ([3]; 50 g ai/ha, 20 DAT): 98% | observed % destruction 8 DAT [4, 15]: 30% | observed % destruction 20 DAT [4, 15]: 75% | observed % destruction 8 DAT [4, 16]: 70% | observed % destruction 20 DAT [4, 16]: 95% | observed % destruction 8 DAT ([4]; SETVI pre-emergence 25 g ai/ha): 80% | observed % destruction 20 DAT ([4]; SETVI pre-emergence 25 g ai/ha): 98% | observed % destruction 8 DAT ([4]; SETVI pre-emergence 50 g ai/ha): 90% | observed % destruction 20 DAT ([4]; SETVI pre-emergence 50 g ai/ha): 100% | observed activity in % destruction ([4]; 6.25 g ai/ha, 8 DAT): 30% | observed activity in % destruction ([4]; 6.25 g ai/ha, 20 DAT): 75% | observed activity in % destruction ([4]; 12.5 g ai/ha, 8 DAT): 70% | observed activity in % destruction ([4]; 12.5 g ai/ha, 20 DAT): 95% | observed activity in % destruction ([4]; 50 g ai/ha, 8 DAT): 90% | observed activity in % destruction ([4]; 50 g ai/ha, 20 DAT): 100% | observed % destruction 20 DAT ([5]; PANMI pre-emergence 6.25 g ai/ha): 35% | observed % destruction 20 DAT ([5]; PANMI pre-emergence 25 g ai/ha): 85% | observed % destruction 8 DAT ([5]; PANMI pre-emergence 50 g ai/ha): 75% | observed % destruction 20 DAT ([5]; PANMI pre-emergence 50 g ai/ha): 90% | observed % destruction 20 DAT [6]: 98% | observed % destruction 20 DAT ([7]; SOLNI pre-emergence 6.25 g ai/ha): 50% | observed % destruction 20 DAT ([7]; SOLNI pre-emergence 12.5 g ai/ha): 70% | observed % destruction 20 DAT ([7]; SOLNI pre-emergence 25 g ai/ha): 90% | observed % destruction 8 DAT ([7]; SOLNI pre-emergence 50 g ai/ha): 50% | observed % destruction 20 DAT ([7]; SOLNI pre-emergence 50 g ai/ha): 95% | inhibition at 50 g/ha ([7]; 192 h, 8 DAT): 50% | inhibition at 50 g/ha ([7]; 480 h, 20 DAT): 95% | observed activity in % destruction ([7]; 12.5 g ai/ha, 8 DAT): 30% | observed activity in % destruction ([7]; 12.5 g ai/ha, 20 DAT): 70% | observed activity in % destruction ([7]; 25 g ai/ha, 8 DAT): 30% | observed activity in % destruction ([7]; 25 g ai/ha, 20 DAT): 90% | observed activity in % destruction ([7]; 50 g ai/ha, 8 DAT): 50% | observed activity in % destruction ([7]; 50 g ai/ha, 20 DAT): 95% | observed % destruction 8 DAT [8, 17]: 40% | observed % destruction 20 DAT [8, 17]: 70% | observed % destruction 8 DAT [8, 18]: 75% | observed % destruction 20 DAT [8, 18]: 98% | observed % destruction 8 DAT ([8]; COMBE pre-emergence 25 g ai/ha): 95% | observed % destruction 20 DAT ([8]; COMBE pre-emergence 25 g ai/ha): 100% | inhibition at 12.5 g/ha ([8]; 192 h, 8 DAT): 75% | inhibition at 12.5 g/ha ([8]; 480 h, 20 DAT): 98% | observed activity in % destruction ([8]; 6.25 g ai/ha, 8 DAT): 40% | observed activity in % destruction ([8]; 6.25 g ai/ha, 20 DAT): 70% | observed activity in % destruction ([8]; 12.5 g ai/ha, 8 DAT): 75% | observed activity in % destruction ([8]; 12.5 g ai/ha, 20 DAT): 98% | observed activity in % destruction ([8]; 25 g ai/ha, 8 DAT): 95% | observed activity in % destruction ([8]; 25 g ai/ha, 20 DAT): 100% | observed % destruction 8 DAT [9]: 90% | observed % destruction 20 DAT [9]: 100% | observed % destruction 20 DAT ([10]; PHBPU pre-emergence 6.25 g ai/ha): 0% | observed % destruction 20 DAT ([10]; PHBPU pre-emergence 12.5 g ai/ha): 55% | observed % destruction 20 DAT ([10]; PHBPU pre-emergence 50 g ai/ha): 75% | observed activity in % destruction ([10]; 8 DAT): 30% | observed activity in % destruction ([10]; 20 DAT): 75% | observed % destruction 20 DAT ([11]; ALOMY pre-emergence 6.25 g ai/ha): 90% | observed % destruction 20 DAT ([11]; ALOMY pre-emergence 12.5 g ai/ha): 98% | observed % destruction 20 DAT ([11]; ALOMY pre-emergence 25 g ai/ha): 98% | observed % destruction 8 DAT ([11]; ALOMY pre-emergence 50 g ai/ha): 85% | observed % destruction 20 DAT ([11]; ALOMY pre-emergence 50 g ai/ha): 98% | observed activity in % destruction ([11]; 12.5 g ai/ha, 8 DAT): 70% | observed activity in % destruction ([11]; 12.5 g ai/ha, 20 DAT): 98% | observed activity in % destruction ([11]; 25 g ai/ha, 8 DAT): 80% | observed activity in % destruction ([11]; 25 g ai/ha, 20 DAT): 98% | observed activity in % destruction ([11]; 50 g ai/ha, 8 DAT): 85% | observed activity in % destruction ([11]; 50 g ai/ha, 20 DAT): 98% | observed % destruction 8 DAT [12, 19]: 0% | observed % destruction 20 DAT [12, 19]: 30% | observed % destruction 8 DAT [12, 20]: 0% | observed % destruction 20 DAT [12, 20]: 40% | observed activity in % destruction ([12]; 8 DAT): 40% | observed activity in % destruction ([12]; 20 DAT): 95%
